The values that follow come from patent publication US10364245B2 (CHIESI FARMACEUTICI S.p.A., priority 2017, dated 2019).

The experiment has as its target T1, p38 alpha (Homo sapiens, UniProt Q16539).
T1 construct: purchased Invitrogen PV3304
Put plainly: P38 alpha enzyme inhibition assay (Alphascreen kinase activity assay). Particulars: 100 pM p38 alpha, 2 hours preincubation at 25° C., 250 μM ATP, ATF-2 fusion protein; read-out: p38α inhibition. Type of experiment: biochemical. Here is the method:
P38 Alpha Enzyme Inhibition Assay
The inhibitory activity of compounds was determined using an Alphascreen® (Perkin Elmer) based kinase activity assay. Kinase reactions consisted of 25 mM HEPES pH 7.5, 10 mM MgCl2, 100 μM Na3VO4, 2 mM DTT, 0.05 mg/ml Tween 20, 100 pM p38 alpha (Invitrogen, PV3304), 1% DMSO and 0.3 μg/ml ATF-2 fusion protein (New England Biolabs, 9224). Compounds were incubated under these conditions for 2 hours, at 25° C., prior to the initiation of the kinase activity by the addition of the 250 μM ATP. Reaction volumes were 20 μL. After 1 hr at 25° C. reactions were stopped by the adding 10 μL of 25 mM HEPES pH 7.5 containing 62.5 mM EDTA, 0.05% Triton X-100, 10% BSA and 0.83 ng/uL anti-phospho-ATF2 antibody (Abcam, ab28812). Detection was performed by measuring luminescence following the addition of Alphascreen Donor beads (Perkin Elmer 6765300) and Protein A Alphascreen Acceptor beads (Perkin Elmer 6760137), both at a final concentration of 20 ug/ml. IC50 values were determined from concentration-response curves.

Structures are written as SMILES. Counter-ions that a name gives are not always drawn.

T1 sequence (Q16539 whole entry): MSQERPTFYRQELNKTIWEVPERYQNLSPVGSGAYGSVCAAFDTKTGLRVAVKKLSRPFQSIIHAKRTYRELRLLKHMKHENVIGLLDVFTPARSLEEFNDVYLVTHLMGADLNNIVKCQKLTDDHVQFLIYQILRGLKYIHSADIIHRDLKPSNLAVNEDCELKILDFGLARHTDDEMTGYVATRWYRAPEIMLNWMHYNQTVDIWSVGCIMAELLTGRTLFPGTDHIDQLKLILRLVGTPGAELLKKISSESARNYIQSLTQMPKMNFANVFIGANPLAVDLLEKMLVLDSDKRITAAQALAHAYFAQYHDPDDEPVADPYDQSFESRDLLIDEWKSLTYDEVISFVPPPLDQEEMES

As to `CC(C)c1nnc2ccc(O[C@@H]3CC[C@H](NC(=O)Nc4cc(C(C)(C)C)nc(C(=O)NCCN(C)C)n4)c4ccccc43)cn12` [Example 17, 4-(tert-Butyl)-N-(2-(dimethylamino)ethyl)-6-(3-((1S,4R)-4-((3-isopropyl-[1,2,4]triazolo[4,3-a]pyridin-6-yl)oxy)-1,2,3,4-tetrahydronaphthalen-1-yl)ureido)pyrimidine-2-carboxamide], the IC50 was in the range of 1 to 10 nM.

Turning to `CN(C)CCNC(=O)c1nc(NC(=O)N[C@H]2CC[C@@H](Oc3ccc4nnc(C(C)(C)N5CCN(C)CC5)n4c3)c3ccccc32)cc(C(C)(C)C)n1` [Example 22, 4-(tert-Butyl)-N-(2-(dimethylamino)ethyl)-6-(3-((1S,4R)-4-((3-(2-(4-methylpiperazin-1-yl)propan-2-yl)-[1,2,4]triazolo[4,3-a]pyridin-6-yl)oxy)-1,2,3,4-tetrahydronaphthalen-1-yl)ureido)pyrimidine-2-carboxamide], the IC50 lay within 1 to 10 nM.

Turning to `CCc1nc(NC(=O)N[C@H]2CC[C@@H](Oc3ccc4nnc([C@]5(C)CCCN5C)n4c3)c3ccccc32)cc(C(C)(C)C)n1` [Example 41, 1-(6-(tert-Butyl)-2-ethylpyrimidin-4-yl)-3-((1S,4R)-4-((3-((S)-1,2-dimethylpyrrolidin-2-yl)-[1,2,4]triazolo[4,3-a]pyridin-6-yl)oxy)-1,2,3,4-tetrahydronaphthalen-1-yl)urea], the IC50 was in the range of 1 to 10 nM.

As for `CC(C)c1nc(NC(=O)N[C@H]2CC[C@@H](Oc3ccc4nnc([C@]5(C)CCCN5C)n4c3)c3ccccc32)cc(C(C)(C)C)n1` [Example 42, 1-(6-(tert-Butyl)-2-isopropylpyrimidin-4-yl)-3-((1S,4R)-4-((3-((S)-1,2-dimethylpyrrolidin-2-yl)-[1,2,4]triazolo[4,3-a]pyridin-6-yl)oxy)-1,2,3,4-tetrahydronaphthalen-1-yl)urea], the IC50 lay in the range of 1 to 10 nM.

On to `CSc1nc(NC(=O)N[C@H]2CC[C@@H](Oc3ccc4nnc([C@@H]5CCCN5C)n4c3)c3ccccc32)cc(C(C)(C)C)n1` [Example 48], for which the IC50 was in the range of 1 to 10 nM.

As to `CC(C)(C)c1cc(NC(=O)N[C@H]2CC[C@@H](Oc3ccc4nnc(C(C)(C)C)n4c3)c3ccccc32)nc(COCCN2CCOCC2)n1` [Example 63, 1-(6-(tert-Butyl)-2-((2-morpholinoethoxy)methyl)pyrimidin-4-yl)-3-((1S,4R)-4-((3-(tert-butyl)-[1,2,4]triazolo[4,3-a]pyridin-6-yl)oxy)-1,2,3,4-tetrahydronaphthalen-1-yl)urea], the IC50 lay within 1 to 10 nM.

Consider `CN(C)CCNC(=O)c1nc(NC(=O)N[C@H]2CC[C@@H](Oc3ccc4nnc(C(=O)N5CCOCC5)n4c3)c3ccccc32)cc(C(C)(C)C)n1` [Example 71, 4-(tert-butyl)-N-(2-(dimethylamino)ethyl)-6-(3-((1S,4R)-4-((3-(morpholine-4-carbonyl)-[1,2,4]triazolo[4,3-a]pyridin-6-yl)oxy)-1,2,3,4-tetrahydronaphthalen-1-yl)ureido)pyrimidine-2-carboxamide], for which the IC50 lay within 1 to 10 nM.

As for `CC(C)(C)c1cc(NC(=O)N[C@H]2CC[C@@H](Oc3ccc4nnc(C(C)(C)C)n4c3)c3ccccc32)nc(C(=O)N2CC(F)(F)C2)n1` [Example 79, 1-(6-(tert-butyl)-2-(3,3-difluoroazetidine-1-carbonyl)pyrimidin-4-yl)-3-((1S,4R)-4-((3-(tert-butyl)-[1,2,4]triazolo[4,3-a]pyridin-6-yl)oxy)-1,2,3,4-tetrahydronaphthalen-1-yl)urea], the IC50 lay within 1 to 10 nM.

Take `CC(C)Cc1nnc2ccc(O[C@@H]3CC[C@H](NC(=O)Nc4cc(C(C)(C)C)nc(C(=O)NCCN5CCOCC5)n4)c4ccccc43)cn12` [Example 90, 4-(tert-butyl)-6-(3-((1S,4R)-4-((3-isobutyl-[1,2,4]triazolo[4,3-a]pyridin-6-yl)oxy)-1,2,3,4-tetrahydronaphthalen-1-yl)ureido)-N-(2-morpholinoethyl)-pyrimidine-2-carboxamide]: the IC50 was in the range of 1 to 10 nM.

For the compound `CC(C)(C)c1cc(NC(=O)N[C@H]2CC[C@@H](Oc3ccc4nnc(C5(C)COC5)n4c3)c3ccccc32)nc(C(=O)NCCN2CCOCC2)n1` [Example 98, 4-(tert-butyl)-6-(3-((1S,4R)-4-((3-(3-methyloxetan-3-yl)-[1,2,4]triazolo[4,3-a]pyridin-6-yl)oxy)-1,2,3,4-tetrahydronaphthalen-1-yl)ureido)-N-(2-morpholinoethyl)-pyrimidine-2-carboxamide], the IC50 lay in the range of 1 to 10 nM.

As to `CO[C@@H](C)c1nnc2ccc(O[C@@H]3CC[C@H](NC(=O)Nc4cc(C(C)(C)C)nc(C(=O)NCCN5CCOCC5)n4)c4ccccc43)cn12` [Example 101, 4-(tert-butyl)-6-(3-((1S,4R)-4-((3-((S)-1-methoxyethyl)-[1,2,4]triazolo[4,3-a]pyridin-6-yl)oxy)-1,2,3,4-tetrahydronaphthalen-1-yl)ureido)-N-(2-morpholinoethyl)-pyrimidine-2-carboxamide], the IC50 lay in the range of 1 to 10 nM.

Turning to `COCCN(C)CCNC(=O)c1nc(NC(=O)N[C@H]2CC[C@@H](Oc3ccc4nnc([C@H](C)OC)n4c3)c3ccccc32)cc(C(C)(C)C)n1` [Example 106, 4-(tert-butyl)-N-(2-((2-methoxyethyl)(methyl)amino)ethyl)-6-(3-((1S,4R)-4-((3-((S)-1-methoxyethyl)-[1,2,4]triazolo[4,3-a]pyridin-6-yl)oxy)-1,2,3,4-tetrahydronaphthalen-1-yl)ureido)pyrimidine-2-carboxamide], the IC50 is 1 to 10 nM.

In the case of `CN(C)CCN(C)C(=O)c1nc(NC(=O)N[C@H]2CC[C@@H](Oc3ccc4nnc(C(C)(C)C)n4c3)c3ccccc32)cc(C(C)(C)C)n1` [Example 115, 4-(tert-butyl)-6-(3-((1S,4R)-4-((3-(tert-butyl)-[1,2,4]triazolo[4,3-a]pyridin-6-yl)oxy)-1,2,3,4-tetrahydronaphthalen-1-yl)ureido)-N-(2-(dimethylamino)ethyl)-N-methylpyrimidine-2-carboxamide], the IC50 was 1 to 10 nM.

With `CC(C)(C)c1cc(NC(=O)N[C@H]2CC[C@@H](Oc3ccc4nnc(C(C)(C)C)n4c3)c3ccccc32)nc(C(=O)N2CCN(CCO)CC2)n1` [Example 116, 1-(6-(tert-butyl)-2-(4-(2-hydroxyethyl)piperazine-1-carbonyl)pyrimidin-4-yl)-3-((1S,4R)-4-((3-(tert-butyl)-[1,2,4]triazolo[4,3-a]pyridin-6-yl)oxy)-1,2,3,4-tetrahydronaphthalen-1-yl)urea], the IC50 fell in the range of 1 to 10 nM.

In the case of `CN1CCCN(C(=O)c2nc(NC(=O)N[C@H]3CC[C@@H](Oc4ccc5nnc(C(C)(C)C)n5c4)c4ccccc43)cc(C(C)(C)C)n2)CC1` [Example 133, 1-(6-(tert-butyl)-2-(4-methyl-1,4-diazepane-1-carbonyl)pyrimidin-4-yl)-3-((1S,4R)-4-((3-(tert-butyl)-[1,2,4]triazolo[4,3-a]pyridin-6-yl)oxy)-1,2,3,4-tetrahydronaphthalen-1-yl)urea], the IC50 lay in the range of 1 to 10 nM.

Turning to `CN1CCN(Cc2nc(NC(=O)N[C@H]3CC[C@@H](Oc4ccc5nnc(C(C)(C)C)n5c4)c4ccccc43)cc(C(C)(C)C)n2)C(=O)C1` [Example 135, 1-(6-(tert-Butyl)-2-((4-methyl-2-oxopiperazin-1-yl)methyl)pyrimidin-4-yl)-3-((1S,4R)-4-((3-(tert-butyl)-[1,2,4]triazolo[4,3-a]pyridin-6-yl)oxy)-1,2,3,4-tetrahydronaphthalen-1-yl)urea formate salt], the IC50 was 1 to 10 nM.
